Data from patent US20260294908A1, “NEUROACTIVE ANDROGEN RECEPTOR MODULATORS AND USE THEREOF” (priority 2023, published 2026).
Like-named read-outs stand apart in the source and are kept apart here.

How the values were obtained:
[1] = for metabolites detected after administration: high-resolution mass spectrometry; for metabolites detected after administration / concentration of metabolites in serum and brain (in words): metabolite = compound of Example 3; for concentration of the compound in serum and brain (in words): after administration
Procedure: • (1) The experimental protocol was referenced and complied with the National Institutes of Health Guide for the Care and Use of Laboratory Animals, and was approved by the Laboratory Animal Welfare and Ethics Committee of the Chinese Institute for Brain Research (CIBR). • (2) Wild-type male C57BL/6J mice, aged 6-7 weeks and weighing 18-22 grams, were used. The mice were housed in a constant-temperature incubator with a 12-hour light-dark cycle and free access to food and water. Food was withheld one day before the experiment, while free access to water was permitted. The mice were injected intraperitoneally with the test compound at a dose of 20 mg/kg. […] After sampling, the samples were immediately centrifuged at low speed to remove blood cells, and hemolysis was minimized as much as possible. After collection, the serum was sent to the mass spectrometry center for pretreatment. • (4) The brain tissue was rapidly dissected after treatment and frozen in liquid nitrogen for later use.
The sample (100 μL) was warmed to the room temperature, acetonitrile: methanol (500 μL, v/v=50:50) was added to the solution, and the sample was vortexed for 20 s. The sample was centrifuged at 5,000 g for 15 min at 4° C. Subsequently, 90% of the supernatant was transferred to a glass tube and concentrated at 45° C. for 1.5 h using a vacuum concentrator. The dried sample was reconstituted in 400 μL of acetonitrile and water mixture (v/v=50/50) and vortexed for 20 s. The resulting mixture was transferred to an EP tube and centrifuged at 5,000 g for 15 min at 4° C. The supernatant was filtered through a 0.22 μm filter and analyzed by LC-MS/MS.
The brain sample (100 mg) was thawed, transferred to a homogenizer tube containing three zirconia beads, and homogenized. After processing as described for the serum samples, the supernatant was then filtered through a 0.22 μm filter, and analyzed by LC-MS/MS.

[2] = biological target: T1, androgen receptor (Homo sapiens, UniProt P10275); assay: cell-based; format: cell-based; settings: for Emax: HEK-293T, read-out: % relative efficacy
T1 construct: expressed in transfected cells; host or cells: HEK293T (ATCC, CRL-3216)
T1 sequence (P10275 whole entry): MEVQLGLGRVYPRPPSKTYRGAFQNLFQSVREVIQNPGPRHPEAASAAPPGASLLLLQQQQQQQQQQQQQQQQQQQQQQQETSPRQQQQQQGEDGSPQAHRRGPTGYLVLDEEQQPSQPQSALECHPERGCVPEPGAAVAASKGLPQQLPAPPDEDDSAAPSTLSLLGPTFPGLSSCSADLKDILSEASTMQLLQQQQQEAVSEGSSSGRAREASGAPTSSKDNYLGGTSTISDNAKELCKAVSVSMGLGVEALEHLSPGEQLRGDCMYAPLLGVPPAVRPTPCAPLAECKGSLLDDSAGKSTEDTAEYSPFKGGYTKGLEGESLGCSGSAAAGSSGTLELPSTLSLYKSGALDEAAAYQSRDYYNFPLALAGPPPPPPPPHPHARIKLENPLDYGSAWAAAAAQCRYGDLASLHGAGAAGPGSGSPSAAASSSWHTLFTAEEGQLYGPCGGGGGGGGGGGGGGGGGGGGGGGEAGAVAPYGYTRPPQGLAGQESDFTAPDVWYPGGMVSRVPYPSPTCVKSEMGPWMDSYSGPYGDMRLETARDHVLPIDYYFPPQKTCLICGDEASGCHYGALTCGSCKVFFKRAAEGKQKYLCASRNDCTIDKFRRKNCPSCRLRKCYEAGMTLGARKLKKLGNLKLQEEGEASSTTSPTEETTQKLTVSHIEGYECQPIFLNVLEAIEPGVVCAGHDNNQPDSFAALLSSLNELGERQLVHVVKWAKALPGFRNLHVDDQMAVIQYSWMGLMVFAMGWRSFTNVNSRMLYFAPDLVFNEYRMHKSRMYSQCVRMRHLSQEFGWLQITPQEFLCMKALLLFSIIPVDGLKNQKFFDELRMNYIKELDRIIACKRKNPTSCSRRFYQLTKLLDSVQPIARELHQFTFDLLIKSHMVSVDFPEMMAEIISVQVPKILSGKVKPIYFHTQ
Procedure: Androgen Receptor Reporter Gene Assay (AR Reporter Gene Assay)
This experiment was performed to investigate the agonistic activity of the compounds of the present disclosure on androgen receptors.
The EC50 was calculated according to the following formula: […]
X represents the logarithm of the activator concentration; Y represents the […]; Bottom represents the lowest plateau value of the curve; Top represents the highest plateau value of the curve; and Hillslope represents the slope of the curve.
The % relative effectiveness was calculated according to the following formula: […]
Activatedcmpd: mean activation value of the compound signal across the entire plate.
ActivatedAve_PC: mean activation value of the positive control across the entire plate.
ActivatedAve_VC: mean activation value of the vehicle control across the entire plate.

[3] = biological target: recombinant human androgen receptor (AR) protein (Homo sapiens, UniProt P10275); format: binding
Chain of recombinant human androgen receptor (AR) protein (P10275 673-918): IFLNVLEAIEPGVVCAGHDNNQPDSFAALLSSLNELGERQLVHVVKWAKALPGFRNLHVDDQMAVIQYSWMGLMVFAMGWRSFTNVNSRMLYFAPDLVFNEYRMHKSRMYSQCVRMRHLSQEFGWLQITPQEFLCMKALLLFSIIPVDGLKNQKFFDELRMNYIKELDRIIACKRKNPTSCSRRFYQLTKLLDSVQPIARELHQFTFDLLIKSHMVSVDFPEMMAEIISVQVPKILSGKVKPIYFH

[4] = mouse, 20 mg/kg intraperitoneal

Row | SMILES | metabolites detected after administration [1] | concentration of metabolites in serum and brain (in words) [1] | blood-brain barrier permeability (in words) [1, 4] | concentration of the compound in serum and brain (in words) ([1]; parent compound) | also measured
1 | CC(C)C(=O)O[C@@](C)(COc1ccc(C#N)cc1)C(=O)Nc1cnc(C#N)c(C(F)(F)F)c1 [Ex. 21, (S)-1-((6-cyano-5-(trifluoromethyl)pyridin-3-yl)amino)-3-(4-cyanophenoxy)-2-methyl-1-oxopropan-2-yl isobutyrate] | detected | higher concentrations of metabolites | certain blood-brain barrier permeability | lower concentrations of the compound | 
2 | C[C@@](COc1ccc(Cl)nc1)(OC(=O)c1cccnc1)C(=O)Nc1cnc(C#N)c(C(F)(F)F)c1 [Ex. 30, (S)-1-((6-cyano-5-(trifluoromethyl)pyridin-3-yl)amino)-3-((6-chloropyridin-3-yl)oxy)-2-methyl-1-oxopropan-2-yl nicotinate] |  |  |  |  | Emax [2]: 14.5%
3 | CCC(=O)O[C@@](C)(COc1ccc(C#N)cc1)C(=O)Nc1cnc(C#N)c(C(F)(F)F)c1 [Ex. 28, (S)-1-((6-cyano-5-(trifluoromethyl)pyridin-3-yl)amino)-3-(4-cyanophenoxy)-2-methyl-1-oxopropan-2-yl-propionate] | detected | higher concentrations of metabolites | certain blood-brain barrier permeability | lower concentrations of the compound | 
4 | CC(=O)O[C@@](C)(COc1ccc(C#N)cc1)C(=O)Nc1cnc(C#N)c(C(F)(F)F)c1 [Ex. 24, (S)-1-((6-cyano-5-(trifluoromethyl)pyridin-3-yl)amino)-3-(4-cyanophenoxy)-2-methyl-1-oxopropan-2-yl acetate] | detected |  |  |  | bioavailability in the brain (in words) ([1]; compared with Example 3): significantly improved; metabolism (in words) ([1]; in vivo, mouse): partially metabolized to the compound of Example 3; total concentration of parent drug and metabolites in the brain (in words) ([1]; mouse, in vivo): significantly higher
5 | C[C@](O)(COc1ccc(C#N)nc1)C(=O)Nc1cnc(C#N)c(C(F)(F)F)c1 [Ex. 5, (S)-N-(6-cyano-5-(trifluoromethyl)pyridin-3-yl)-3-((6-cyanopyridin-3-yl)oxy)-2-hydroxy-2-methylpropionamide] |  |  |  |  | androgen receptor protein binding affinity and agonistic activity (in words) [2]: excellent androgen receptor protein binding affinity and agonistic activity; affinity to the androgen receptor proteins (in words) [3]: strong affinity
6 | C[C@](O)(COc1cc(C(F)(F)F)ncn1)C(=O)Nc1cnc(C#N)c(C(F)(F)F)c1 [Ex. 1, (S)-N-(6-cyano-5-(trifluoromethyl)pyridin-3-yl)-2-hydroxy-2-methyl-3-((6-(trifluoromethyl)pyrimidin-4-yl)oxy)propionamide] |  |  |  |  | Affinity KD [3]: No binding
7 | C[C@](O)(COc1ccc(C#N)nc1)C(=O)Nc1ccc(C#N)c(C(F)(F)F)c1 [Ex. 4, (S)-N-(4-cyano-3-(trifluoromethyl)phenyl)-3-((6-cyanopyridin-3-yl)oxy)-2-hydroxy-2-methylpropionamide] |  |  |  |  | affinity to the androgen receptor proteins (in words) [3]: strong affinity
8 | C[C@](O)(COc1cc(C(F)(F)F)ncn1)C(=O)Nc1ccc(C#N)c(C(F)(F)F)c1 [Ex. 2, (S)-N-(4-cyano-3-(trifluoromethyl)phenyl)-2-hydroxy-2-methyl-3-((6-(trifluoromethyl)pyrimidin-4-yl)oxy)propionamide] |  |  |  |  | Affinity KD ([3]; Biacore T200, CM5 chip, human AR Ile673-His918 with N-terminal His Tag): No binding
9 | C[C@@](COc1ccc(C#N)cc1)(OC(=O)c1cccnc1)C(=O)Nc1cnc(C#N)c(C(F)(F)F)c1 [Ex. 13, (S)-1-((6-cyano-5-(trifluoromethyl)pyridin-3-yl)amino)-3-(4-cyanophenoxy)-2-methyl-1-oxopropan-2-yl nicotinate] | detected | higher concentrations of metabolites | certain blood-brain barrier permeability | lower concentrations of the compound | 
10 | C[C@@](COc1ccc(C#N)cc1)(OC(=O)CCCC[C@@H]1CCSS1)C(=O)Nc1cnc(C#N)c(C(F)(F)F)c1 [Ex. 15, (S)-1-((6-cyano-5-(trifluoromethyl)pyridin-3-yl)amino)-3-(4-cyanophenoxy)-2-methyl-1-oxopropyl-2-yl 5-((R)-1,2-dithiolan-3-yl) pentanoate] |  |  |  |  | metabolism (in words) ([1]; mouse, in vivo): may undergo rapid metabolic processes in vivo
11 | C[C@](O)(COc1ccc(C#N)c(F)c1)C(=O)Nc1cnc(C#N)c(C(F)(F)F)c1 [Ex. 8, (S)-3-(4-cyano-3-fluorophenoxy)-N-(6-cyano-5-(trifluoromethyl)pyridin-3-yl)-2-hydroxy-2-methylpropionamide] |  |  |  |  | concentration detected in serum and brain (in words) ([1]; mouse, in vivo, ip, 20 mg/kg): certain concentrations of the compound were detected in serum and brain up to 72 h after administration; blood-brain barrier permeability (in words) ([1]; mouse, not told, ip, 20 mg/kg): good blood-brain barrier permeability
12 | C[C@@](COc1ccc(C#N)cc1)(OC(=O)C1CCCC1)C(=O)Nc1cnc(C#N)c(C(F)(F)F)c1 [Ex. 22, (S)-1-((6-cyano-5-(trifluoromethyl)pyridin-3-yl)amino)-3-(4-cyanophenoxy)-2-methyl-1-oxopropan-2-yl cyclopentanecarboxylate] | detected | higher concentrations of metabolites | certain blood-brain barrier permeability | lower concentrations of the compound | Emax [2]: 2.3%
13 | C[C@](O)(COc1ccc(C#N)cc1)C(=O)Nc1cnc(C#N)c(C(F)(F)F)c1 [Ex. 3, (S)-N-(6-cyano-5-(trifluoromethyl)pyridin-3-yl)-3-(4-cyanophenoxy)-2-hydroxy-2-methylpropionamide] |  |  | good blood-brain barrier permeability |  | concentration detected in serum and brain (in words) ([1]; up to 72 h, 20 mg/kg intraperitoneal, parent compound): certain concentrations of the compound were detected in serum and brain up to 72 h after administration; androgen receptor protein binding affinity and agonistic activity (in words) [2]: excellent androgen receptor protein binding affinity and agonistic activity; affinity to the androgen receptor proteins (in words) [3]: strong affinity
14 | C[C@@](COc1ccc(C#N)cc1)(OC(=O)c1ccccc1)C(=O)Nc1cnc(C#N)c(C(F)(F)F)c1 [Ex. 26, (S)-1-((6-cyano-5-(trifluoromethyl)pyridin-3-yl)amino)-3-(4-cyanophenoxy)-2-methyl-1-oxopropan-2-yl benzoate] | detected | higher concentrations of metabolites | certain blood-brain barrier permeability | lower concentrations of the compound | affinity to the androgen receptor proteins (in words) [3]: strong affinity
